Reference: ChEMBL document CHEMBL1142677, “Synthesis, antitumor evaluation, and apoptosis-inducing activity of hydroxylated (E)-stilbenes” (2005)
Each block holds one molecule with its values, some of them ahead of it.

Tests used:
[1] = In vitro growth inhibitory concentration against human mammary carcinoma cell line MDA MB 468 using MTT assay; assay type: functional
[2] = Percent of apoptosis in MDA MB 468 Cell line determined by Annexin-V-FITC/PI analysis at 10 uM; assay type: functional, Homo sapiens
[3] = Percent of apoptosis in MDA MB 468 Cell line determined by Annexin-V-FITC/PI analysis at 250 nM; assay type: functional, Homo sapiens
[4] = In vitro growth inhibitory concentration against human mammary carcinoma cell line MDA MB 468; assay type: functional
[5] = test system: HCT-116; experiment: In vitro growth inhibitory concentration against human colon cancer cell line HCT 116; assay type: functional

Compound: COc1cc(/C=C/c2cccc(O)c2)cc(OC)c1
- GI50 [1]: 960 nM

Compound: Oc1ccccc1/C=C/c1ccc(F)c(F)c1
- GI50 [1]: 1100 nM

Compound: Oc1cccc(/C=C/c2ccc(F)c(F)c2)c1
- GI50 [1]: 1600 nM

Compound: COc1ccccc1/C=C/c1cccc(O)c1
- Apoptosis [2]: 20%

Compound: Oc1cccc(/C=C/c2ccccc2F)c1
- GI50 [1]: 1400 nM

Compound: CC[C@@]1(O)C(=O)OCc2c1cc1n(c2=O)Cc2cc3ccccc3nc2-1 [CAMPTOTHECIN]
- Apoptosis [3]: 37%

- GI50 [5]: > 40000 nM
Compound: Oc1ccc(/C=C/c2cc(O)cc(O)c2)cc1 [RESVERATROL]
- GI50 [4]: > 40000 nM
- Apoptosis [2]: 4%
